Measured values from patent publication US20230002359A1, “PESTICIDALLY ACTIVE FUSED BICYCLIC HETEROAROMATIC COMPOUNDS” (priority 2019, published 2023).

Key:
Type in all cases: in vivo
[1] = tested on: Plutella xylostella (Diamondback Moth); assay: Example B9: Plutella xylostella (diamondback moth), artificial diet, eggs, 96-well; conditions: 216 h, application rate of 500 ppm, 9 days after infestation, read-out: control in mortality
Experimental: 96-well microtiter plates containing artificial diet were treated with aqueous test solutions, prepared from 10′000 ppm DMSO stock solutions, by a liquid handling robot. After drying, eggs (˜30 per well) were infested onto a netted lid which was suspended above the diet. The eggs hatch and L1 larvae move down to the diet. The samples were assessed for mortality 9 days after infestation.

[2] = tested on: Myzus persicae (Green Peach Aphid); assay: Example B5: Myzus persicae (green peach aphid) feeding/contact activity, sunflower leaf discs; conditions: foliar, 144 h, application rate of 200 ppm, 6 days after infestation
Experimental: Sunflower leaf discs were placed onto agar in a 24-well microtiter plate and sprayed with aqueous test solutions prepared from 10′000 ppm DMSO stock solutions. After drying, the leaf discs were infested with an aphid population of mixed ages. The samples were assessed for mortality 6 days after infestation.

[3] = tested on: Plutella xylostella (Diamond Back Moth); assay: Example B4: Plutella xylostella (diamond back moth), artificial diet, eggs, 24-well; conditions: 192 h, application rate of 200 ppm, 8 days after infestation, eggs, read-out: control in at least one of the two categories (mortality or growth inhibition)
Experimental: 24-well microtiter plates with artificial diet were treated with aqueous test solutions prepared from 10′000 ppm DMSO stock solutions by pipetting. After drying, Plutella eggs were pipetted through a plastic stencil onto a gel blotting paper and the plate was closed with it. The samples were assessed for mortality and growth inhibition in comparison to untreated samples 8 days after infestation.

[4] = tested on: Myzus persicae (Green Peach Aphid); assay: Example B6: Myzus persicae (green peach aphid) intrinsic activity, sucrose solution; conditions: 120 h, test rate of 12 ppm, 5 days after infestation, intrinsic activity, read-out: mortality
In short: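 Mortality was read 5 days after infestation. Aphids on pea seedlings fed through a stretched Parafilm membrane on inverted 24-well plates containing sucrose solution mixed with test compound, which was diluted from 10′000 ppm DMSO stock.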

[5] = tested on: Chilo suppressalis (Striped Rice Stemborer); assay: Example B3: Chilo suppressalis (striped rice stemborer), artificial diet, L2 larvae; conditions: 144 h, application rate of 200 ppm, 6 days after infestation, L2 larvae, read-out: control in at least one of the three categories (mortality, anti-feedant effect, or growth inhibition)
In short: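 Scoring covers mortality, anti-feedant effect and growth inhibition at 6 days post-infestation, relative to untreated diet, with activity defined as at least one category above untreated. Test solutions were aqueous, made from 10'000 ppm DMSO stocks, and applied to artificial diet before drying and infestation with L2 larvae.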

[6] = tested on: Spodoptera littoralis (Egyptian Cotton Leaf Worm); assay: Example B7: Spodoptera littoralis (Egyptian cotton leaf worm), cotton leaf discs sprayed, L1 larvae; conditions: foliar, 72 h, application rate of 200 ppm, 3 days after infestation, L1 larvae, read-out: control in at least one of the three categories (mortality, anti-feedant effect, or growth inhibition)
In short: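 Read-out: mortality, feeding deterrence and growth inhibition, assessed 3 days after infestation relative to untreated samples. Sprayed, dried cotton leaf discs on agar each received five first-instar (L1) larvae; sprays were aqueous solutions prepared from 10′000 ppm DMSO stocks.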

[7] = tested on: Diabrotica Balteata (Corn Root Worm); assay: Example B1: Diabrotica balteata (corn root worm), maize sprouts sprayed, L2 larvae; conditions: 96 h, application rate of 200 ppm, 4 days after infestation, L2 larvae, read-out: control in at least one of the two categories (mortality or growth inhibition)
In short: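 Spray test: maize sprouts on agar, aqueous dilutions of 10′000 ppm DMSO stock; after drying, 6–10 L2 larvae/well. Read-out at 4 d post-infestation: mortality and growth inhibition vs untreated.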

[8] = tested on: Spodoptera littoralis (Egyptian Cotton Leaf Worm); assay: Example B8: Spodoptera littoralis (Egyptian cotton leaf worm), uptake by lettuce roots from agar, eggs; conditions: 144 h, test rate of 12.5 ppm, 6 days after infestation, compound absorbed by lettuce roots, read-out: control in at least one of the three categories (mortality, anti-feeding, or growth inhibition)
Text: Test compounds were applied by pipette from 10′000 ppm DMSO stock solutions into 24-well plates and mixed with agar. Lettuce seeds were placed onto the agar and the multi well plate was closed by another plate which contained also agar. After 7 days the compound was absorbed by the roots and the lettuce grew into the lid plate. The lettuce leaves were then cut off into the lid plate. Spodoptera eggs were pipetted through a plastic stencil onto a humid gel blotting paper and the lid plate was closed with it. The samples were assessed for mortality, anti-feedant effect and growth inhibition in comparison to untreated samples 6 days after infestation.
The following compounds gave an effect of at least 80% control in at least one of the three categories (mortality, anti-feeding, or growth inhibition) at a test rate of 12.5 ppm: P.58, P.93, P.94, P.95, P.130, P.254, P.256.

[9] = tested on: Euschistus heros (Neotropical Brown Stink Bug); assay: Example B2: Euschistus heros (neotropical brown stink bug), soybean leaves sprayed, N2 nymphs; conditions: 120 h, application rate of 200 ppm, 5 days after infestation, N2 nymphs, read-out: control in at least one of the two categories (mortality or growth inhibition)
Experimental: Soybean leaves on agar in 24-well microtiter plates were sprayed with aqueous test solutions prepared from 10′000 ppm DMSO stock solutions. After drying the leaves were infested with N2 nymphs. The samples were assessed for mortality and growth inhibition in comparison to untreated samples 5 days after infestation.

CC(c1ncnn1-c1ccc(C#N)cn1)N(C)c1ncnc2c(C(F)(F)F)cc(Br)cc12 (centres unmarked) [P.52, 6-[5-[1-[[6-bromo-8-(trifluoromethyl)quinazolin-4-yl]-methyl-amino]ethyl]-1,2,4-triazol-1-yl]pyridine-3-carbonitrile]
≥ 80%: mortality at 500 ppm [1] | mortality at 200 ppm [2] | percent control (mortality or growth inhibition) at 200 ppm [3] | mortality at 12 ppm [4] | percent control (mortality, anti-feedant effect or growth inhibition) at 200 ppm [5] | percent control (mortality, anti-feedant effect or growth inhibition) at 200 ppm [6] | percent control (mortality or growth inhibition) at 200 ppm [7]

CC(c1ncnn1-c1ncccn1)N(C)c1ncnc2c(C(F)(F)F)cc(C(F)(F)F)cc12 (centres unmarked) [P.58, N-methyl-N-[1-(2-pyrimidin-2-yl-1,2,4-triazol-3-yl)ethyl]-6,8-bis(trifluoromethyl)quina-zolin-4-amine]
≥ 80%: mortality at 500 ppm [1] | percent control (mortality, anti-feeding or growth inhibition) at 12.5 ppm [8]

C[C@H](Nc1ncnc2c(OC(F)F)cc(Cl)cc12)c1ncnn1-c1ncccn1 [P.93, 6-chloro-8-(difluoromethoxy)-N-[(1S)-1-(2-pyrimidin-2-yl-1,2,4-triazol-3-yl)ethyl]quinazolin-4-amine]
≥ 80%: percent control (mortality or growth inhibition) at 200 ppm [9] | mortality at 500 ppm [1] | percent control (mortality, anti-feeding or growth inhibition) at 12.5 ppm [8] | percent control (mortality or growth inhibition) at 200 ppm [3] | mortality at 12 ppm [4] | percent control (mortality, anti-feedant effect or growth inhibition) at 200 ppm [5] | percent control (mortality, anti-feedant effect or growth inhibition) at 200 ppm [6] | percent control (mortality or growth inhibition) at 200 ppm [7]

C[C@H](Nc1ncnc2c(Cl)cc(OC(F)F)cc12)c1ncnn1-c1ncccn1 [P.94, 8-chloro-6-(difluoromethoxy)-N-[(1S)-1-(2-pyrimidin-2-yl-1,2,4-triazol-3-yl)ethyl]quinazolin-4-amine]
≥ 80%: mortality at 500 ppm [1] | percent control (mortality, anti-feeding or growth inhibition) at 12.5 ppm [8] | mortality at 200 ppm [2] | percent control (mortality or growth inhibition) at 200 ppm [3] | mortality at 12 ppm [4] | percent control (mortality, anti-feedant effect or growth inhibition) at 200 ppm [5] | percent control (mortality or growth inhibition) at 200 ppm [7]

C[C@H](Nc1ncnc2c(I)cc(C(F)(F)F)cc12)c1ncnn1-c1ncccn1 [P.95, 8-iodo-N-[(1S)-1-(2-pyrimidin-2-yl-1,2,4-triazol-3-yl)ethyl]-6-(trifluoromethyl)quinazolin-4-amine]
≥ 80%: percent control (mortality or growth inhibition) at 200 ppm [9] | mortality at 500 ppm [1] | percent control (mortality, anti-feeding or growth inhibition) at 12.5 ppm [8] | mortality at 200 ppm [2] | percent control (mortality or growth inhibition) at 200 ppm [3] | mortality at 12 ppm [4] | percent control (mortality, anti-feedant effect or growth inhibition) at 200 ppm [5] | percent control (mortality, anti-feedant effect or growth inhibition) at 200 ppm [6] | percent control (mortality or growth inhibition) at 200 ppm [7]

CC(Nc1ncnc2c(C(F)(F)F)cc(Cl)cc12)c1nccnc1-c1ncccn1 (centres unmarked) [P.130, 6-chloro-N-[1-(3-pyrimidin-2-ylpyrazin-2-yl)ethyl]-8-(trifluoromethyl)quinazolin-4-amine]
≥ 80%: percent control (mortality, anti-feeding or growth inhibition) at 12.5 ppm [8] | mortality at 200 ppm [2] | percent control (mortality or growth inhibition) at 200 ppm [3] | mortality at 12 ppm [4] | percent control (mortality, anti-feedant effect or growth inhibition) at 200 ppm [5] | percent control (mortality, anti-feedant effect or growth inhibition) at 200 ppm [6] | percent control (mortality or growth inhibition) at 200 ppm [7]

C[C@@H](c1ncnn1-c1ccc(C#N)cn1)N(C)c1ccnc2c(Br)cc(C(F)(F)F)cc12 [P.254, 6-[5-[(1S)-1-[[8-bromo-6-(trifluoromethyl)-4-quinolyl]-methyl-amino]ethyl]-1,2,4-triazol-1-yl]pyridine-3-carbonitrile]
≥ 80%: percent control (mortality, anti-feeding or growth inhibition) at 12.5 ppm [8] | percent control (mortality or growth inhibition) at 200 ppm [3] | percent control (mortality, anti-feedant effect or growth inhibition) at 200 ppm [5] | percent control (mortality, anti-feedant effect or growth inhibition) at 200 ppm [6] | percent control (mortality or growth inhibition) at 200 ppm [7]

C[C@H](Nc1ccnc2c(Br)cc(C(F)(F)F)cc12)c1ncnn1-c1ccc(C#N)cn1 [P.256, 6-[5-[(1S)-1-[[8-bromo-6-(trifluoromethyl)-4-quinolyl]amino]ethyl]-1,2,4-triazol-1-yl]pyridine-3-carbonitrile]
≥ 80%: percent control (mortality, anti-feeding or growth inhibition) at 12.5 ppm [8] | percent control (mortality or growth inhibition) at 200 ppm [3] | percent control (mortality, anti-feedant effect or growth inhibition) at 200 ppm [5] | percent control (mortality, anti-feedant effect or growth inhibition) at 200 ppm [6] | percent control (mortality or growth inhibition) at 200 ppm [7]
